Reference: ChEMBL document CHEMBL4043111, “Asymmetric synthesis and evaluation of epoxy-α-acyloxycarboxamides as selective inhibitors of cathepsin L” (Bioorg Med Chem, 2017)
Values joined by “and” are separate entries in the source; they are usually repeats but may differ in a detail not shown here. Identical values can stand only once. Active and inactive are the calls of the source. No cut-off for these calls is given here.

Legend:
[1] = biological target: T1, Procathepsin L (Homo sapiens, UniProt P07711); assay: Inhibition of human liver cathepsin L at 25 uM peincubated for 5 mins followed by Z-FR-MCA addition by spectrofluorimetric method relative to control
Target sequence in this assay (P07711 114-333 limits assumed): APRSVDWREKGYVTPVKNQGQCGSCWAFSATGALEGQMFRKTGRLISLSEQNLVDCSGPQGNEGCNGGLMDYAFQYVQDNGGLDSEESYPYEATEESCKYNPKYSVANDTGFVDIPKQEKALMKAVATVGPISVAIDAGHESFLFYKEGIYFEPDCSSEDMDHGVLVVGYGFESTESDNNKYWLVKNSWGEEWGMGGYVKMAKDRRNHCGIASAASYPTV

[2] = biological target: T2, Cathepsin K (Homo sapiens) (UniProt P43235); assay: Inhibition of cathepsin K (unknown origin) at 25 uM peincubated for 5 mins followed by Z-FR-MCA addition by spectrofluorimetric method relative to control
T2 sequence (whole entry): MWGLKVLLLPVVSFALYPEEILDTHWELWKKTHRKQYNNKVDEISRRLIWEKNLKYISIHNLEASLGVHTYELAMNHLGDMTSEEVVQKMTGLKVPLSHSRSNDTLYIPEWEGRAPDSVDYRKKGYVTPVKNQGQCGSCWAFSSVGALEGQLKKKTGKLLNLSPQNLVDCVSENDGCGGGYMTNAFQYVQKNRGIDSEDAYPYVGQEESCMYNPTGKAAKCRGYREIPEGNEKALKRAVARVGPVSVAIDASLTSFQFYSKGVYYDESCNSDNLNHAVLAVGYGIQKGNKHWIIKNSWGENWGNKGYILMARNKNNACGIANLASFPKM

[3] = biological target: T3, Cathepsin L2 (Homo sapiens) (UniProt O60911); assay: Inhibition of cathepsin V (unknown origin) at 25 uM peincubated for 5 mins followed by Z-FR-MCA addition by spectrofluorimetric method relative to control
T3 sequence (whole entry): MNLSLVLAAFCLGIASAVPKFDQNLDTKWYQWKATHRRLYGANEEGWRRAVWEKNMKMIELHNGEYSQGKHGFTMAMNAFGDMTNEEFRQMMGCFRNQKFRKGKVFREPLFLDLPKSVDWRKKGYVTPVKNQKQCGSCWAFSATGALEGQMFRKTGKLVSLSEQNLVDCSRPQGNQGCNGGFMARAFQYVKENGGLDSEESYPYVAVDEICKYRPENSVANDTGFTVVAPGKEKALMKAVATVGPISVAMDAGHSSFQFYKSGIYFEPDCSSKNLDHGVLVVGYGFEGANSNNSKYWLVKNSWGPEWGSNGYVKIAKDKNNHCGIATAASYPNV

[4] = biological target: T1, Procathepsin L; assay: Inhibition of human liver cathepsin L peincubated for 5 mins followed by Z-FR-MCA addition by spectrofluorimetric method
Target sequence in this assay (P07711 whole entry): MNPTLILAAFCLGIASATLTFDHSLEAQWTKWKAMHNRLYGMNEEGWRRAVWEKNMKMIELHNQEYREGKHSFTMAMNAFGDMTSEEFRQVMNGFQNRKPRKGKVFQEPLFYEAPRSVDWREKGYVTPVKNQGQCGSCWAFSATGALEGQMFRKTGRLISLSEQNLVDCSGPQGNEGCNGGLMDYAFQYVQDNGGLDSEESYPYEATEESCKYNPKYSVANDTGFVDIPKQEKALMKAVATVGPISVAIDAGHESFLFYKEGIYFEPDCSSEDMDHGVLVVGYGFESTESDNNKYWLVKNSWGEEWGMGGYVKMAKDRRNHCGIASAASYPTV

[5] = biological target: T4, Cathepsin K (Homo sapiens, UniProt P43235); assay: Inhibition of cathepsin K (unknown origin) peincubated for 5 mins followed by Z-FR-MCA addition by spectrofluorimetric method
T4 sequence (P43235 whole entry): T2 sequence (whole entry)

[6] = biological target: T1, Procathepsin L; assay: Reversible inhibition of human liver cathepsin L peincubated for 30 mins followed by addition of 4 uM of substrate Z-FR-MCA measured after 10 mins by spectrofluorimetric method
Target sequence in this assay (P07711 whole entry): as above

[7] = biological target: T1, Procathepsin L; assay: Reversible inhibition of human liver cathepsin L peincubated for 30 mins followed by addition of 9 uM of substrate Z-FR-MCA measured after 10 mins by spectrofluorimetric method
Target sequence in this assay (P07711 whole entry): as above

[8] = biological target: T1, Procathepsin L; assay: Reversible inhibition of human liver cathepsin L peincubated for 30 mins followed by addition of 3.5 uM of substrate Z-FR-MCA measured after 10 mins by spectrofluorimetric method
Target sequence in this assay (P07711 whole entry): as above

[9] = biological target: T1, Procathepsin L; assay: Reversible inhibition of human liver cathepsin L peincubated for 30 mins followed by addition of 6 uM of substrate Z-FR-MCA measured after 10 mins by spectrofluorimetric method
Target sequence in this assay (P07711 whole entry): as above

[10] = biological target: T1, Procathepsin L; assay: Uncompetitive inhibition of cathepsin L (unknown origin) peincubated for 30 mins followed by substrate Z-FR-MCA addition measured after 10 mins by spectrofluorimetric method
Target sequence in this assay (P07711 whole entry): as above

[11] = biological target: T1, Procathepsin L; assay: Reversible inhibition of human liver cathepsin L peincubated for 30 mins followed by addition of 8 uM of substrate Z-FR-MCA measured after 10 mins by spectrofluorimetric method
[12] = biological target: T1, Procathepsin L; assay: Reversible inhibition of human liver cathepsin L peincubated for 30 mins followed by addition of 5.5 uM of substrate Z-FR-MCA measured after 10 mins by spectrofluorimetric method
[13] = biological target: T1, Procathepsin L; assay: Reversible inhibition of human liver cathepsin L peincubated for 30 mins followed by addition of 5 uM of substrate Z-FR-MCA measured after 10 mins by spectrofluorimetric method
[14] = biological target: T1, Procathepsin L; assay: Reversible inhibition of human liver cathepsin L peincubated for 30 mins followed by addition of 4.5 uM of substrate Z-FR-MCA measured after 10 mins by spectrofluorimetric method
[15] = biological target: T1, Procathepsin L; assay: Reversible inhibition of human liver cathepsin L peincubated for 30 mins followed by addition of 7 uM of substrate Z-FR-MCA measured after 10 mins by spectrofluorimetric method

SMILES	inhibition [1]	inhibition [2] [%]	inhibition [3] [%]	further results
CCCCCCC[C@H]1O[C@@H]1C(OC(=O)CCCCCBr)C(=O)NC(C)(C)C (mixture of isomers)	inactive			
CCCCCCC[C@H]1O[C@@H]1C(OC(=O)CCCCCBr)C(=O)NCCCC (mixture of isomers)	69%			
CC(C)(C)NC(=O)C(OC(=O)c1ccccc1)[C@H]1O[C@@H]1c1ccccc1[N+](=O)[O-] (mixture of isomers)	10.5%	21.5	21.3	
CCCCCCC[C@H]1O[C@@H]1C(OC(=O)[C@@H]1CCCN1C(=O)OC(C)(C)C)C(=O)NC(C)(C)C (single isomer, unassigned)	52.6%	39.3	0	
CCCCCCC[C@H]1O[C@@H]1C(OC(=O)c1ccccc1)C(=O)NCC(=O)OC (mixture of isomers)	inactive			
CCCCCCCC1OC1C(OC(=O)c1ccc(I)cc1)C(=O)NC1CCCCC1 (mixture of isomers; form 1)				IC50 [4]: 1.13 µM
CCCCCCCCNC(=O)C(OC(=O)CCCCCBr)[C@H]1O[C@@H]1c1ccccc1[N+](=O)[O-] (mixture of isomers)	84%			IC50 [4]: 8.55 µM
CCCCCCC[C@H]1O[C@@H]1C(OC(=O)c1ccc(I)cc1)C(=O)NCCCC (mixture of isomers)	74%			
CCCCCCC[C@H]1O[C@@H]1C(OC(=O)CC(C)C)C(=O)NCc1ccccc1 (mixture of isomers)	43%			
CCCCCCC[C@H]1O[C@@H]1C(OC(=O)c1ccc(I)cc1)C(=O)NC(C)(C)C (mixture of isomers)	65%			
CCCCCCC[C@H]1O[C@@H]1C(OC(=O)CC(C)C)C(=O)NCCCC (mixture of isomers)	inactive			
CCCCCCCC1OC1C(OC(=O)c1ccc(I)cc1)C(=O)NC1CCCCC1 (mixture of isomers; form 2)				IC50 [4]: 2.02 µM
CCCC(=O)OC(C(=O)NCc1ccccc1)[C@H]1O[C@@H]1c1ccccc1[N+](=O)[O-] (mixture of isomers)	2.9%	0	3.9	
CCCCCCC[C@H]1O[C@@H]1C(OC(=O)C1CCCCC1)C(=O)NC(C)(C)C (mixture of isomers)	inactive			
CCCCCCC[C@H]1O[C@@H]1C(OC(=O)C1CCCCC1)C(=O)NCCCC (mixture of isomers)	70%			
CCCCCCC[C@H]1O[C@@H]1C(OC(=O)CCCCCBr)C(=O)NC1CCCCC1 (mixture of isomers)	69%			
CCCCCCC[C@H]1O[C@@H]1C(OC(=O)c1ccccc1)C(=O)NC(C)(C)C (mixture of isomers)	86.4%	69.1	43.5	IC50 [5]: 12.5 µM
CCCCCCCC1OC1C(OC(=O)c1ccc(I)cc1)C(=O)NC1CCCCC1 (stereo not given)				IC50 [4]: 2.2 µM and 4.28 µM
CCCCCCC[C@H]1O[C@@H]1C(OC(=O)c1ccc(I)cc1)C(=O)NC1CCCCC1 (mixture of isomers)	98.5%	78	30.8	IC50 [6]: 11.5 µM; IC50 [7]: 6.09 µM; IC50 [8]: 16.9 µM; IC50 [9]: 5.26 µM; IC50 [5]: 5.72 µM; Ki [10]: 1.33 µM; IC50 [11]: 5.75 µM; IC50 [12]: 5.13 µM; IC50 [13]: 9.78 µM; IC50 [14]: 11.1 µM; IC50 [15]: 7.17 µM
CCCCCCC[C@H]1O[C@@H]1C(OC(=O)[C@H]1CCCN1C(=O)OC(C)(C)C)C(=O)NC(C)(C)C (mixture of isomers)	67.3%	38.7	0	
